Experimental findings from patent publication US4533664A, “Antithrombotic N-(6-chloro-pyrazin-2-yl)-4-Hydroxy-2H-1,2-benzothiazine-3-carboxamide-1 ,1-dioxide derivatives, composition, and method of use” (Dr. Karl Thomae Gesellschaft mit beschrankter Haftung, priority 1982, dated 1985) are described below.

In series [1] the test system is collagen-induced thrombocyte aggregation. The series is described as follows: Born test, collagen-induced aggregation (platelet-rich plasma). In kind it is cell-based, human (healthy test subjects). The settings on record: for inhibition at 10 µM: 10^-5 Mol/l; for inhibition at 1 µM: 10^-6 Mol/l. As to the method: The compounds were tested for their inhibiting effects in blood platelet aggregation induced by collagen and their effect of prolonging the bleeding time in mice. The compounds were also tested for their acute toxicity.
(a) Born test, collagen-induced aggregation
The thrombocyte aggregation was measured on platelet-rich plasma from healthy test subjects using the method of BORN and CROSS (J. Physiol. 170, 397 [1964]). The decrease in optical density of the platelet suspensions after the addition of collagen was measured photometrically and recorded. The rate of aggregation was deduced from the angle of inclination of the density curve. The point on the curve at which there is maximum light transmittance was used to calculate the "optical density". The quantity of collagen was selected so as to obtain an irreversible control curve.
The figures given refer to the optical density and indicate the percentage change in light transmittance (=% attenuation of aggregation) under the effect of the test substance, compared with the control.
Standard commercial collagen made by Hormon-Chemie of Munich was used.

In series [2] the test system is bleeding time in mice. The series is described as follows: Determination of the bleeding time in mice (method of DUKE). It counts as in vivo, mouse (NMRI Biberach). How it is done: (c) Determination of the bleeding time in mice
The bleeding time was measured on unanesthetized female mice weighing from 20 to 25 g by the method of DUKE (J. Amer. Med. Assoc.) 15, 1187, 1910). About 0.5 mm of the tip of the animals' tail was cut off, and the blood escaping was carefully wiped away with a strip of filter paper at 30 second intervals. The number of drops of blood thus obtained provided a measurement of the bleeding time. The normal bleeding time in mice is 4.1 minutes on average.
Strain of animals: NMRI Biberach
Number of animals per test: 5
The test compound was administered by esophageal tube one hour before the measurement.

The test system of series [3] is stomach of the rat. The series is described as follows: ulcerogenic effect on the stomach of the rat. It counts as in vivo.
The subject of series [4] is mice. The series is described as follows: Determination of acute toxicity. It counts as in vivo. As to the method:
(§1) (d) Determination of acute toxicity
(§2) The acute toxicity was determined after oral administration to male and female mice. The compounds were administered as a suspension in tylose.
(§3) The following table indicates the number of animals which died within 1, 7 and 14 days after receiving the doses stated: […]

For series [5], the system named is rat. As to the kind of experiment: edema test (antiphlogistic effect). The conditions noted are these: for powerful antiphlogistic effect, dose range: p.o. in the rat (edema test). It counts as in vivo.
For series [6], the system named is collagen-induced aggregation (platelet-rich plasma). The series is described as follows: Born test, rat ex vivo, collagen-induced aggregation. It counts as in vivo. The conditions noted are these: 1 hour after administration, optical density. How it is done: (b) Born test, rat ex vivo, collagen-induced aggregation
The following forms were tested:
The test compound was administered by esophageal tube in the form of an aqueous solution or, in the case of compound A in the form of a tylose suspension, to conscious rats weighing about 450 g. After 1 hour, blood was taken from the abdominal aorta of the animals (which had previously been anesthetized with pentobarbital sodium). The platelet-rich plasma obtained by centrifuging was pooled. The controls were three animals which had not been given any of the test compound. The method of taking blood and preparing the plasma was the same for both groups. The anticoagulant used was 2% sodium citrate in a volume ratio of 1+9.
All the testing was carried out one hour after the administration of the test compound.

Series [7] can be described thus: Determination of acute toxicity. It counts as in vivo. The conditions noted are these: mouse, in vivo; oral, mice; printed ">>1000 mg/kg". How it is done:
as §1, §2, §3

[8] abbreviates: Homo sapiens, optical density, read-out: BORN test [= % reduction in aggregation].
Where [9] appears, read: Homo sapiens, Table I, read-out: IC50 (50% reduction in aggregation).
The mark [10] stands for this setting: Homo sapiens, as stated in text on Table I, read-out: concentration giving a 50% reduction in aggregation.
[11] abbreviates: 250 mg/kg oral, of 10 animals (A) or 5 animals (B, Y, Z).
[12] abbreviates: 1000 mg/kg oral, of 10 animals (A) or 5 animals (B).

Molecules are shown by their SMILES. Where a name gives a salt, the structure may show the parent alone. Read-outs that look alike come from different tables or passages of the source. A value given as a limit tells only on which side of the number the result lay.

Turning to `CN1C(C(=O)Nc2ccccn2)=C(O)c2ccccc2S1(=O)=O` [Y, 4-hydroxy-2-methyl-N-(2-pyridyl)-2H-1,2-benzothiazine-3-carboxamide-1,1-dioxide], in series [1] (setting [8]), the inhibition at 10 µM stood at 85% and the inhibition at 1 µM was found to be 39%. For the same compound, the IC50 in series [1] (setting [9]) was determined as 2000 nM. In series [1] (setting [10]), the IC50 was 2000 nM. Besides, the side effects entry in series [2] (10 mg/kg) is listed as “already show side effects”. Besides, the ulcerogenic effect result in series [3] was “strong ulcerogenic effect”. In addition, in series [4] (setting [11]), the “Animals which died during the observation period, 1 day” value amounted to 0; the “Animals which died during the observation period, 7 days” value came out at 3; the “Animals which died during the observation period, 14 days” value is given as 3. In addition, in series [5], the “powerful antiphlogistic effect, dose range” value is listed as 1 to 5 mg/kg.

`CN1C(C(=O)Nc2cncc(Cl)n2)=C(O)c2ccccc2S1(=O)=O` [G, Ammonium salt of N-(6-chloro-pyrazin-2-yl)-4-hydroxy-2-methyl-2H-1,2-benzothiazine-3-carboxamide-1,1-dioxide]: the “percentage inhibition of aggregation” value in series [6] (0.0125 mg/kg p.o.) worked out at 7%; in series [6] (0.025 mg/kg p.o.) it was 36%; in series [6] (0.05 mg/kg p.o.), 92%.

For the compound `CN1C(C(=O)Nc2cncc(Cl)n2)=C(O)c2ccccc2S1(=O)=O` [D, Tetramethylammonium salt of N-(6-chloro-pyrazin-2-yl)-4-hydroxy-2-methyl-2H-1,2-benzothiazine-3-carboxamide-1,1-dioxide], the “percentage inhibition of aggregation” value in series [6] (0.0125 mg/kg p.o.) was found to be 27%; in series [6] (0.025 mg/kg p.o.), 20%; in series [6] (0.05 mg/kg p.o.), 97%.

In the case of `CN1C(C(=O)Nc2cncc(Cl)n2)=C(O)c2ccccc2S1(=O)=O` [E, Ethanolamine salt of N-(6-chloropyrazin-2-yl)-4-hydroxy-2-methyl-2H-1,2-benzothiazine-3-carboxamide-1,1-dioxide], the “percentage inhibition of aggregation” value was 10% in series [6] (0.0125 mg/kg p.o.), 53% in series [6] (0.025 mg/kg p.o.) and 87% in series [6] (0.05 mg/kg p.o.).

With `CN1C(C(=O)Nc2cncc(Cl)n2)=C(O)c2ccccc2S1(=O)=O` [Compound B, Potassium salt of N-(6-chloro-pyrazin-2-yl)-4-hydroxy-2-methyl-2H-1,2-benzothiazine-3-carboxamide-1,1-dioxide], the “percentage inhibition of aggregation” value was 26% in series [6] (0.0125 mg/kg p.o.), 86% in series [6] (0.025 mg/kg p.o.) and 100% in series [6] (0.05 mg/kg p.o.). For the same compound, the “Animals which died during the observation period, 1 day” value in series [4] (setting [11]) and in series [4] (setting [12]) was 0 each time. Also, the “Animals which died during the observation period, 7 days” value in series [4] (setting [11]) is recorded as 0; in series [4] (setting [12]), 1. Further, the “Animals which died during the observation period, 14 days” value in series [4] (setting [11]) was determined as 0; in series [4] (setting [12]), 1.

With `CN1C(C(=O)Nc2cncc(Cl)n2)=C(O)c2ccccc2S1(=O)=O` [C, Sodium salt of N-(6-chloro-pyrazin-2-yl)-4-hydroxy-2-methyl-2H-1,2-benzothiazine-3-carboxamide-1,1-dioxide], the “percentage inhibition of aggregation” value in series [6] (0.0125 mg/kg p.o.) is on record as 0%; in series [6] (0.025 mg/kg p.o.) it was 32%; in series [6] (0.05 mg/kg p.o.) it was 96%; in series [6] (0.125 mg/kg p.o.) it was 100%; in series [6] (0.25 mg/kg p.o.) it was 100%; in series [6] (0.5 mg/kg p.o.), 100%.

Consider `CN1C(C(=O)Nc2cncc(Cl)n2)=C(O)c2ccccc2S1(=O)=O` [Compound A, N-(6-Chloro-pyrazin-2-yl)-4-hydroxy-2-methyl-2H-1,2-benzothiazine-3-carboxamide-1,1-dioxide], for which the “percentage inhibition of aggregation” value in series [6] (0.125 mg/kg p.o.) is given as 14%. For the same compound, in series [6] (Rattus norvegicus, po, 1 h, 0.25 mg/kg p.o., read-out: percentage inhibition of aggregation), the inhibition at 0.25 mg/kg was 93%. Further, the inhibition at 0.5 mg/kg in series [6] (Rattus norvegicus, po, 1 h, 0.5 mg/kg p.o., read-out: percentage inhibition of aggregation) was found to be 86%. For the same compound, in series [1] (setting [8]), the inhibition at 10 µM was 95% and the inhibition at 1 µM worked out at 71%. In series [1] (Homo sapiens, 10^-7 Mol/l, optical density, read-out: BORN test [= % reduction in aggregation]), the inhibition at 0.1 µM was found to be 6%. Further, the IC50 in series [1] (setting [9]) was found to be 470 nM. For the same compound, the “concentration leading to a 50% reduction compared with prior art compounds Y and Z” value in series [1] (comparison with Y and Z) was “about one tenth power lower”. Further, the ulcerogenic effect entry in series [3] was “no ulcerogenic effect up to 100 mg/kg”. This compound had an LD50 at 336 h in series [7] greater than 1000 mg/kg. In series [4] (setting [11]), the “Animals which died during the observation period, 1 day” value is 0; the “Animals which died during the observation period, 7 days” value was 0; the “Animals which died during the observation period, 14 days” value is 0. Moreover, in series [4] (setting [12]), the “Animals which died during the observation period, 1 day” value stood at 0; the “Animals which died during the observation period, 7 days” value turned out to be 0; the “Animals which died during the observation period, 14 days” value is 0. Besides, in series [5] (Rattus norvegicus, po, edema test), the ED35 was greater than 200 mg/kg. Besides, the antiphlogistic effect result in series [5] (edema test) was “no antiphlogistic effect”.

`CN1C(C(=O)Nc2cncc(Cl)n2)=C(O)c2ccccc2S1(=O)=O` [F, Calcium salt of N-(6-chloro-pyrazin-2-yl)-4-hydroxy-2-methyl-2H-1,2-benzothiazine-3-carboxamide-1,1-dioxide]: the entries for the “percentage inhibition of aggregation” value in series [6] (0.0125 mg/kg p.o.), in series [6] (0.025 mg/kg p.o.) and in series [6] (0.05 mg/kg p.o.) were 27%, 64% and 77%, respectively.

In the case of `CN1C(C(=O)Nc2cnccn2)=C(O)c2ccccc2S1(=O)=O` [Z, 4-hydroxy-2-methyl-N-(2-pyrazinyl)-2H-1,2-benzothiazine-3-carboxamide-1,1-dioxide], the inhibition at 10 µM in series [1] (setting [8]) was found to be 15%. Besides, the IC50 in series [1] (setting [9]) was greater than 10000 nM. Further, the IC50 in series [1] (setting [10]) is greater than 10000 nM. In addition, the “Prolongation of bleeding time” value in series [2] (10 mg/kg by esophageal tube, one hour before the measurement) is “+62%”. Also, the ulcerogenic effect entry in series [3] is recorded as “strong ulcerogenic effect”. Further, in series [4] (setting [11]), the “Animals which died during the observation period, 1 day” value came to 1; the “Animals which died during the observation period, 7 days” value is listed as 4; the “Animals which died during the observation period, 14 days” value came to 4. In addition, in series [5], the “powerful antiphlogistic effect, dose range” value lay within 1 to 5 mg/kg.

By LD50 is commonly meant the dose expected to kill half of the subjects tested. Read a high LD50 as a less toxic substance.
